From patent US10336702B2, “Pharmaceutically active compounds” (BERGENBIO ASA, priority 2015, dated 2019)

What was measured:
Type in all cases: biochemical
Akt3 = target: T1, Akt3 (Homo sapiens, UniProt Q9Y243); test: Akt activation assay (PDK1-mediated activation, LANCE Ultra crosstide TR-FRET), Akt3; conditions: read-out: Biological Assay 1 IC50 (nM) Akt3
T1 construct: unspecified tag, removed (detagged) (cleaved yes); purchased SignalChem and Proteros (Akt3); Merck Millipore (PDK1) 14-452 (PDK1); none given for Akt3
Procedure: (§1) Biological Assay 1: Akt Activation Assay
(§2) Addition of a Europium-labelled antibody specific to the phosphopeptide allows energy transfer from the Europium donor to the Ultra Ulight™ acceptor if close enough in proximity.
(§3) Full length active His6-tagged PDK1 was obtained from Merck Millipore (14-452).
(§4) 1× assay buffer (AB): 50 mM HEPES pH 7.5, 1 mM EGTA, 10 mM MgCl2, 0.01% Tween. Immediately before use, DTT to a concentration of 2 mM was added.
(§5) To prepare lipid vesicles: 1 mg/ml PtdIns(3,4,5)P3 solution (in 10 mM HEPES 7.5) was added to 16.7 mg/ml DOPS/DOPC mixture (in 10 mM HEPES pH 7.5) in a ratio of 1:8.3. MilliQ water was added to the solution to generate concentrations of 400 μM DOPS, 400 μM DOPC and 40 μM PtdIns(3,4,5)P3. The mixture was subjected to 5× freeze/thaw cycles and aliquots stored at −20° C.
(§6) 5 μL enzyme in 1×AB was incubated with 2.5 μL test compound. To start the reaction 2.5 μL reaction mix was added which consisted of PDK1, lipid preparations, crosstide and ATP in 1×AB. Final assay concentrations were as follows: 1% DMSO, 5 nM SignalChem Akt1/15 nM SignalChem Akt2/3 nM Signalchem Akt3/5 nM Proteros Akt1/5 nM proteros Akt2/5 nM Proteros Akt3, 5 nM PDK1, 5.5 μM DOPS, 5.5 μM DOPC, 0.55 μM PtdIns(3,4,5)P3, 100 μM ATP, 100 nM LANCE® Ultra Ulight™-Crosstide. After 30 min, the reaction was stopped using 5 μL 40 μM EDTA in 1× Detection buffer for 5 min. For detection, 5 μL 8 nM LANCE® Ultra Europium-anti-phospho-Crosstide antibody in 1× Detection buffer was added to each well and incubated for 1 h. Plates read with the EnVision® Multilabel Plate Reader, excitation at 320 nm and emission at 665 nm and 615 nm. Compound IC50 was determined using a 4-parameter equation.

Akt2 = target: T2, Akt2 (Homo sapiens, UniProt P31751); test: Akt activation assay (PDK1-mediated activation, LANCE Ultra crosstide TR-FRET), Akt2; conditions: read-out: Biological Assay 1 IC50 (nM) Akt2
T2 construct: unspecified tag, removed (detagged) (cleaved yes); purchased SignalChem and Proteros (Akt2); Merck Millipore (PDK1) 14-452 (PDK1); none given for Akt2
Procedure: as §1, §2, §3, §4, §5, §6

Akt1 = target: T3, Akt1 (Homo sapiens, UniProt P31749); test: Akt activation assay (PDK1-mediated activation, LANCE Ultra crosstide TR-FRET), Akt1; conditions: read-out: Biological Assay 1 IC50 (nM) Akt1
T3 construct: unspecified tag, removed (detagged) (cleaved yes); purchased SignalChem and Proteros (Akt1); Merck Millipore (PDK1) 14-452 (PDK1); none given for Akt1
Procedure: as §1, §2, §3, §4, §5, §6

T2 sequence (P31751 whole entry): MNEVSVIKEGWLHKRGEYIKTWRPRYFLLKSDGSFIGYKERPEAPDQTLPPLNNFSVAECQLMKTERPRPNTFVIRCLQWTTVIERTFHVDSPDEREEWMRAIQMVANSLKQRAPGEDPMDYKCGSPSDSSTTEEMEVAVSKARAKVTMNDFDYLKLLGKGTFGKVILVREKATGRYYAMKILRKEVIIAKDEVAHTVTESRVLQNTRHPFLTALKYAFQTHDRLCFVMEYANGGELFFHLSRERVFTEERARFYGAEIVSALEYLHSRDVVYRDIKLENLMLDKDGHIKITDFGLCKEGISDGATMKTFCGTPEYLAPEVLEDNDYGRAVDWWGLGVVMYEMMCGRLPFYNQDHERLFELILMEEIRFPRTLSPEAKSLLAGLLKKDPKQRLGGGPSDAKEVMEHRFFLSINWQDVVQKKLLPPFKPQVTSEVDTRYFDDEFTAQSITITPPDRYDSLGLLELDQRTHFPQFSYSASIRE
T3 sequence (P31749 whole entry): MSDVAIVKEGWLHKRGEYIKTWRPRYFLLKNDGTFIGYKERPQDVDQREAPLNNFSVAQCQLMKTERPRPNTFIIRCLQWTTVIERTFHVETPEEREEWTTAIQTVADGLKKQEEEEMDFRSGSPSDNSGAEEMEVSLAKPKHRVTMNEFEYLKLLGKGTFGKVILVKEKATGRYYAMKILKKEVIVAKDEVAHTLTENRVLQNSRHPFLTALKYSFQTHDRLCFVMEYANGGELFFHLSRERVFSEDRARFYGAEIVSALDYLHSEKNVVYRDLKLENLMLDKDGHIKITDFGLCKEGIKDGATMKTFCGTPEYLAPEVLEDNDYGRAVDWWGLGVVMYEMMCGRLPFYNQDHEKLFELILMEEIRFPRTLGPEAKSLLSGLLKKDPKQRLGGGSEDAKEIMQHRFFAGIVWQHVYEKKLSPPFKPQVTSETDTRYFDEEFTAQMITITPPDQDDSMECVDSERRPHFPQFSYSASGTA
T1 sequence (Q9Y243 whole entry): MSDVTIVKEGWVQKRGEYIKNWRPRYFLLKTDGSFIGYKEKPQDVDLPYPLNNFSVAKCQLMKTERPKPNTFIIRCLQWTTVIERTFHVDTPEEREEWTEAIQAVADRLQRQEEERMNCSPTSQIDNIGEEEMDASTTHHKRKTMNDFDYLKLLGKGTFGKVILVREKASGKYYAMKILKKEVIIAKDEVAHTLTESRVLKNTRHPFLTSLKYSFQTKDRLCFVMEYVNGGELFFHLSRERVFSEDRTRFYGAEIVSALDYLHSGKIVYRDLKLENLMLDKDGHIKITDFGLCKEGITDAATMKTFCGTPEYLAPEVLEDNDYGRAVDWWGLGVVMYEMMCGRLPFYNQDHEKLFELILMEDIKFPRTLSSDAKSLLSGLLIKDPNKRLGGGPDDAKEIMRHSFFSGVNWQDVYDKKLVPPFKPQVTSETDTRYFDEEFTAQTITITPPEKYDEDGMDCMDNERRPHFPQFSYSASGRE

Row | Compound | IC50 (Akt3) [nM] | IC50 (Akt2) [nM] | IC50 (Akt1) [nM]
1 | C[C@@H]1CC(CC(=O)Nc2cnc(-c3ccc(C4(N)COC4)cc3)c(-c3ccccc3)c2)C[C@H](C)O1 (stereo partly drawn) [Example 22, N-(6-(4-(3-aminooxetan-3-yl)phenyl)-5-phenylpyridin-3-yl)-2-((2r,6s)-2,6-dimethyltetrahydro-2H-pyran-4-yl)acetamide] | 210 | 2600 | > 30000
2 | Cc1nncn1[C@H]1CC[C@H](CC(=O)Nc2cnc(-c3ccc(C(C)(C)N)cc3)c(-c3ccccc3)c2)CC1 [Example 23, N-(6-(4-(2-aminopropan-2-yl)phenyl)-5-phenylpyridin-3-yl)-2-(trans-4-(3-methyl-4H-1,2,4-triazol-4-yl)cyclohexyl)acetamide] | 430 | 11000 | > 30000
3 | CC(=O)N[C@H]1CC[C@H](CC(=O)Nc2cnc(-c3ccc(C4(N)CC(F)(F)C4)cc3)c(-c3ccccc3)c2)CC1 [Example 25, 2-(trans-4-acetamidocyclohexyl)-N-(6-(4-(1-amino-3,3-difluorocyclobutyl)phenyl)-5-phenylpyridin-3-yl)acetamide] | 170 | 270 | 8300
4 | NC1(c2ccc(-c3ncc(NC(=O)C[C@H]4CC[C@H](NS(=O)(=O)C5CC5)CC4)cc3-c3ccccc3)cc2)COC1 [Example 37, N-(6-(4-(3-aminooxetan-3-yl)phenyl)-5-phenylpyridin-3-yl)-2-(trans-4-(cyclopropanesulfonamido)cyclohexyl)acetamide] | 56 | 590 | > 30000
5 | C[C@]1(O)C[C@@](N)(c2ccc(-c3ncc(NC(=O)C[C@H]4CC[C@H](NC(=O)C(F)F)CC4)cc3-c3ccccc3)cc2)C1 [Example A5, N-(trans-4-(2-((6-(4-(trans-1-amino-3-hydroxy-3-methylcyclobutyl)phenyl)-5-phenylpyridin-3-yl)amino)-2-oxoethyl)cyclohexyl)-2,2-difluoroacetamide] | 10 | 43 | 760
6 | CC(C)(C(=O)N[C@H]1CC[C@H](CC(=O)Nc2cnc(-c3ccc(C4(N)COC4)cc3)c(-c3ccccc3)c2)CC1)C(F)(F)F [Example A6, N-(trans-4-(2-((6-(4-(3-aminooxetan-3-yl)phenyl)-5-phenylpyridin-3-yl)amino)-2-oxoethyl)cyclohexyl)-3,3,3-trifluoro-2,2-dimethylpropanamide] | 130 | 1400 | > 30000
7 | CC(=O)N[C@H]1CC[C@H](CC(=O)Nc2cnc(-c3ccc([C@H](C)N)cc3)c(-c3ccccc3)c2)CC1 [Example A8, 2-(trans-4-acetamidocyclohexyl)-N-(6-(4-((S)-1-aminoethyl)phenyl)-5-phenylpyridin-3-yl)acetamide] | 530 | 6900 | > 30000
8 | C[C@H](N)c1ccc(-c2ncc(NC(=O)C[C@H]3CC[C@H](NC(=O)C(C)(C)C(F)(F)F)CC3)cc2-c2ccccc2)cc1 [Example A10, N-(trans-4-(2-((6-(4-((S)-1-aminoethyl)phenyl)-5-phenylpyridin-3-yl)amino)-2-oxoethyl)cyclohexyl)-3,3,3-trifluoro-2,2-dimethylpropanamide] | 4600 | 18000 | > 30000
9 | C[C@H](N)c1ccc(-c2ncc(NC(=O)C[C@H]3CC[C@H](N(C)S(C)(=O)=O)CC3)cc2-c2ccccc2)cc1 [Example A13, N-(6-(4-((S)-1-aminoethyl)phenyl)-5-phenylpyridin-3-yl)-2-(trans-4-(N-methylmethylsulfonamido)cyclo-hexyl)acetamide] | 830 | 8100 | > 30000
10 | CN([C@H]1CC[C@H](CC(=O)Nc2cnc(-c3ccc(C4(N)CCC4)cc3)c(-c3ccccc3F)c2)CC1)S(C)(=O)=O [Example A16, N-(6-(4-(1-aminocyclobutyl)phenyl)-5-(2-fluorophenyl)pyridin-3-yl)-2-(trans-4-(N-methylmethylsulfonamido)cyclo-hexyl)acetamide] | 210 | 260 | 9800
11 | CC1(C(=O)N[C@H]2CC[C@H](CC(=O)Nc3cnc(-c4ccc(C(C)(C)N)cc4)c(-c4ccccc4)c3)CC2)CC1 [Example A21, N-(trans-4-(2-((6-(4-(2-aminopropan-2-yl)phenyl)-5-phenylpyridin-3-yl)amino)-2-oxoethyl)cyclohexyl)-1-methylcyclopropane-1-carboxamide] | 55 | 4100 | > 37000
12 | CC(C)C(=O)N[C@H]1CC[C@H](CC(=O)Nc2cnc(-c3ccc(C(C)(C)N)cc3)c(-c3ccccc3)c2)CC1 [Example A22, N-(trans-4-(2-((6-(4-(2-aminopropan-2-yl)phenyl)-5-phenylpyridin-3-yl)amino)-2-oxoethyl)cyclohexyl)isobutyramide] | 68 | 3500 | > 30000
13 | CC(=O)N[C@H]1CC[C@H](CC(=O)Nc2cnc(-c3ccc(C(C)(C)N)cc3)c(-c3ccsc3)c2)CC1 [Example A23, 2-(trans-4-acetamidocyclohexyl)-N-(6-(4-(2-aminopropan-2-yl)phenyl)-5-(thiophen-3-yl)pyridin-3-yl)acetamide] | 1900 | 22000 | > 30000
14 | CN(C(=O)CC(C)(C)C)[C@H]1CC[C@H](CC(=O)Nc2cnc(-c3ccc(C(C)(C)N)cc3)c(-c3ccccc3)c2)CC1 [Example A30, N-(trans-4-(2-((6-(4-(2-aminopropan-2-yl)phenyl)-5-phenylpyridin-3-yl)amino)-2-oxoethyl)cyclohexyl)-N,3,3-trimethylbutanamide] | 290 | 16000 | > 30000
15 | CN(C(=O)C1(C)CC1)[C@H]1CC[C@H](CC(=O)Nc2cnc(-c3ccc(C(C)(C)N)cc3)c(-c3ccccc3)c2)CC1 [Example A31, N-(trans-4-(2-((6-(4-(2-aminopropan-2-yl)phenyl)-5-phenylpyridin-3-yl)amino)-2-oxoethyl)cyclohexyl)-N,1-dimethylcyclopropane-1-carboxamide] | 1400 | 11000 | > 30000
16 | CN(C(=O)CC1CC1)[C@H]1CC[C@H](CC(=O)Nc2cnc(-c3ccc(C(C)(C)N)cc3)c(-c3ccccc3)c2)CC1 [Example A32, N-(trans-4-(2-((6-(4-(2-aminopropan-2-yl)phenyl)-5-phenylpyridin-3-yl)amino)-2-oxoethyl)cyclohexyl)-2-cyclopropyl-N-methylacetamide] | 630 | 9700 | > 30000
17 | NC1(c2ccc(-c3ncc(NC(=O)C[C@H]4CC[C@H](NC(=O)C(F)F)CC4)cc3-c3ccccc3)cc2)CCC1 [Example A35, N-(trans-4-(2-((6-(4-(1-aminocyclobutyl)phenyl)-5-phenylpyridin-3-yl)amino)-2-oxoethyl)cyclohexyl)-2,2-difluoroacetamide] | 20 | 370 | 9400
18 | CC(C)(N)c1ccc(-c2ncc(NC(=O)C[C@H]3CC[C@H](NC(=O)C4CCC4)CC3)cc2-c2ccccc2)cc1 [Example A36, N-(trans-4-(2-((6-(4-(2-aminopropan-2-yl)phenyl)-5-phenylpyridin-3-yl)amino)-2-oxoethyl)cyclohexyl)cyclobutanecarboxamide] | 160 | 6800 | > 30000
19 | NC1(c2ccc(-c3ncc(NC(=O)C[C@H]4CC[C@H](NC(=O)C5CC5)CC4)cc3-c3ccccc3)cc2)CCC1 [Example A39, N-(trans-4-(2-((6-(4-(1-aminocyclobutyl)phenyl)-5-phenylpyridin-3-yl)amino)-2-oxoethyl)cyclohexyl)cyclopropane-carboxamide] | 15 | 140 | 3100
20 | CC(C)(C)C(=O)N[C@H]1CC[C@H](CC(=O)Nc2cnc(-c3ccc(C4(N)CCC4)cc3)c(-c3ccsc3)c2)CC1 [Example A40, N-(trans-4-(2-((6-(4-(1-aminocyclobutyl)phenyl)-5-(thiophen-3-yl)pyridin-3-yl)amino)-2-oxoethyl)cyclohexyl)pivalamide] | 25 | 810 | > 27000
